# Tests used:
# concanavalin A (ConA) = target: T1, concanavalin A (ConA) (Canavalia ensiformis, UniProt P02866); test: Fluorescence polarization (FP) titration of BODIPY probes with ConA; type: binding; settings: probe 0.5 µM, increasing ConA
# T1 construct: purchased Sigma Aldrich L7647-100MG
# Method: All experiments were conducted at 25 °C.
# (§1) All experiments were performed at room temperature (25 °C).
# ConA [1] = target: T2, ConA (Canavalia ensiformis, UniProt P02866); type: binding; settings: FCS, probe 500 nM, ConA 50 nM
# T2 construct: purchased Sigma Aldrich L7647-100MG
# Method: 500 nM solution of each dye in the absence or presence of 50 nM ConA was placed in a glass-bottom ibidi 18-well µ-slides, precoated with albumin (Sigma Aldrich) to reduce dye adsorption to the surface. FCS experiments were performed with an Abberior Instruments microscope in the confocal mode using the Olympus UPlanSApo 60×/1.2 water immersion objective and steered through the Imspector software. Fluorescence was excited by a 561 nm pulsed excitation laser at an average power of around 10 µW, and detected by an avalanche photodiode through a 0.9 Airy-unit pinhole and a 580–630 nm emission filter (Semrock). Intensity fluctuations were acquired in 2 µs bins for 15–120 seconds at least 5 times per sample. The intensity traces were autocorrelated and further analysed with the open source FoCuS-scan software (https://github.com/dwaithe/FCS_scanning_correlator)[41] employing the 3D-diffusion model (fits in Fig. 8) with the aspect ratio of the optical point-spread-function and anomalous diffusion exponent fixed to 10 and 0.9, respectively.
# ConA [2] = target: T2, ConA
# Method: Accordingly, preliminary agglutination experiments were performed by following a previously reported protocol,[28] thus expecting aggregation of lectin with the mannosylated BODIPYs driven by the molecular recognition of the mannose residues on the fluorescent probes. Accordingly, Tris-BODIPY-OH was used as a negative control. The changes in the absorption (λ = 490 nm) of the solutions of the glycoBODIPYs treated with a fixed concentration of ConA (20 µM in HEPES 25 mM, pH 7.6, 1 mM CaCl2, 1 mM MnCl2) were monitored over time (0–30 min, Fig. 3A).
# Data are normalized according to the maximum optical density value.
# A solution of ConA (20 µM) in the buffer (HEPES 25 mM pH 7.6, 1 mM CaCl2, 1 mM MnCl2) was prepared. In a 96-well plate (Microplate, 96 wells, PS, F-BOTTOM (CHIMNEY WELL), clear, non-binding) were placed 100 µL of the 20 µM solution of each BODIPY, then 100 µL of the solution of ConA was added. The mixture was gently shaken for 10 minutes, then the optical density at λ = 490 nm was measured every minute for 30 minutes. The measurements were carried out in triplicate.
# ConA [3] = target: T2, ConA; type: binding; settings: BODIPY 500 nM, ConA 500 nM
# Method: Accordingly, FLIM was used in this work to directly visualize the formation of the glycoBODIPY/ConA complexes. […] The color scale in the images corresponds to the dye lifetime measured by FLIM for each pixel in the image.
# Fig. 4 FLIM images measured for: (left panels) the (free) BODIPY solutions 500 nM in HEPES 25 mM pH 7.6, 1 mM CaCl2, 1 mM MnCl2 and for (right panels) solutions of the BODIPYs (500 nM) combined with ConA (500 nM in HEPES 25 mM pH 7.6, 1 mM CaCl2, 1 mM MnCl2).
# FLIM was performed at room temperature (20 °C) on a Nikon Ti AX-R NSPARC confocal microscope using a Nikon Plan Apo λD 100× oil immersion objective (NA = 1.45). The microscope is equipped with a two-channel PicoQuant FLIM compact module system. Images of 1024 × 1024 pixels were acquired using a 488 nm pulsed laser for excitation and recording photons of fluorescence emission at a wavelength of 620 ± 50 nm for 90 s at a frequency of 25 MHz through a PMA Hybrid single photon counting module and a MultiHarp 150 multichannel event timer. Lifetime histograms were calculated and analyzed using SymphoTime©. Samples were inserted into LabteK chambers, and the images were acquired at 10 µm from the coverslip to avoid interactions of the dye with the surface of the coverslip.
# ConA [4] = target: T2, ConA; test: Competitive fluorescence polarization assay (displacement of Man9-BODIPY from ConA); type: binding
# Method: Titration experiments allowed us to define the concentration of ConA to be used in a competitive displacement assay, which was set to 2 µM.
# The fluorescence polarization is expressed in millipolarization (mP) units (A).
# as §1
structure (smiles),measurement,setting,value
CC1=C(C#CCOCC(CO)(CO)CO)C(C)=[N+]2C1=C(c1ccc(-n3cc(COCC(CO)(CO)CO)nn3)cc1)c1c(C)c(C#CCOCC(CO)(CO)CO)c(C)n1[B-]2(F)F [Tris-BODIPY-OH],Binding to ConA in FP titration (in words),concanavalin A (ConA),did not bind to ConA
same,Shift of the autocorrelation curve in the presence of ConA,ConA [1],no shift was observed
same,Change of turbidity / absorption (λ = 490 nm) over time with ConA,"ConA [2]; BODIPY 20 µM solution, ConA 20 µM solution, HEPES pH 7.6, 0–30 min",No change in the absorption
same,Change of fluorescence lifetime histogram in the presence of ConA,ConA [3],the peak of the histogram is unchanged
CO[C@H]1O[C@H](CO)[C@@H](O)[C@H](O)[C@@H]1O [α-O-methyl-D-mannopyranoside],Deagglutination of glycoBODIPYs/ConA aggregates,"ConA [2]; 50 mM competitor added, optical density at 490 nm",fast deagglutination process
OC[C@H]1OC(O)[C@@H](O)[C@@H](O)[C@@H]1O (stereo partly drawn) [D-mannose],Competitive displacement of the probe (in words),ConA [4],competitively displaced the probe
same,mP0,ConA [4],113.9 ± 4.0
same,mPmax,ConA [4],432 ± 13
